As usually defined, the IC50 is the concentration that gives 50% inhibition.

This note sets out measurements from patent US20050192279A1, “Pyridazinones as antagonists of alpha4 integrins” (priority 2004, published 2005).

One assay concerns the target T1, α4β1 (Homo sapiens, UniProt P05556+P13612).
T1 construct: Ramos Cell Adhesion Assay (α4β1 Mediated Adhesion/VCAM-1); endogenous in cells; host or cells: Ramos cells
In words: Ramos Cell Adhesion Assay (α4β1 Mediated Adhesion/VCAM-1). Format: cell-based. Particulars: Ramos cell adhesion to hVCAM-1; read-out: α4β1 IC50. Summed up: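 Plates coated overnight at 4° C with recombinant hVCAM-1 at 4.0 μg/mL, pH 9.0, then blocked in PBS/1% BSA. Calcein AM-labeled Ramos cells added with compounds and left to adhere 1 h at room temperature; after washing, cells lysed in 1 M Tris pH 8.0/1% SDS.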

Assay [1] concerns alpha 4 beta 7-positive cells. The experiment in a line: Intraperitoneal Delayed Type Hypersensitivity (IP-DTH) Response. The format is in vivo, mice. Particulars: peritoneal cells 48 h after antigen challenge; for inhibition in vivo at 30 mg/kg: Mus musculus, 48 h, read-out: % Decrease in recruited α4β7 + cells. The source says: Intraperitoneal Delayed Type Hypersensitivity (IP-DTH) Response. A Method for Analyzing Effects of Integrin Antagonists In Vivo
Integrin antagonists are meant to interfere with the binding or adhesion of immune cells, such as lymphocytes, monocytes and eosinophils that bear integrin receptors to counter-receptors that exist on endothelial cells in the vasculature. Among those integrin-bearing cells, cells that are positive for alpha 4 beta 7 integrin (found in the mesenteric system and in the gut), would comprise many of the cells recruited to a peritoneal antigen challenge. One can maximize the number of alpha 4 beta 7 integrin-positive cells recruited by inducing an intraperitoneal delayed type hypersensitivity response to antigen that will recruite antigen-responsive cells from the mesenteric lymph nodes. An inhibitor of alpha 4 beta 7 integrin should prevent the recruitment of these cells to the site of antigen challenge. Alpha 4 beta 7 integrin-positive cells are considered to be gut-homing, and are found in greater abundance in inflamed tissues of the GI tract and pancrea.
The antigenic challenge will induce a delayed type hypersensitivity response. In this model, animals were primed with antigen, then 7 days later were challenged intraperitoneally with the same antigen. During the ensuing 24-48 h, cells that were primed to recognize this antigen should be recruited to the challenge site. If the site is the peritoneal cavity, the recruited cells can be obtained by […] the cavity with a physiological buffer and collecting the lavage fluid.
The contribution of alpha 4 beta 7 integrin positive cells to the peritonal cavity cell population was ascertained by using flow cytometry to evaluate their relative percent in this population.
The mice were primed via intraperitoneal administration with 25 micrograms ovalbumin in a physiological buffer that may or may not contain alum as an adjuvant.
After 7 days, the mice were challenged with 25 micrograms ovalbumin via intraperitoneal administration.
Compounds were administered either orally (po), or subcutaneously (sc), either once daily or twice daily, for 2 days, starting on the day of antigen challenge.
Forty eight hours after antigen challenge, the elicited cells in the peritoneal cavity were harvested by lavaging the cavity in physiological saline or phosphate buffered saline, with calcium and magnesium salts.
The cells were washed into Staining Buffer consisting of phosphate buffered saline, 1% bovine serum albumin and 0.1% sodium azide, and resuspended to 2×10e7 cells/ml. A portion of 1×10e6 cells was deposited into a 96-well V-bottom plate for staining.
The sample of 1×10e6 cells was stained with fluorochrome-coupled antibody to alpha 4 beta 7 integrin or a primary antibody to alpha 4 beta 7 integrin followed by a secondary fluorochrome-coupled antibody. Each staining step was carried out at 4° C. for 30 to 45 min with gentle shaking, followed by 4 washes with Staining Buffer at 4° C. The cells were resuspended in 200 microliters of 1% paraformaldehyde in phosphate buffered saline. The cells were then transferred to test tubes and maintained at 4° C. until analyzed by flow cytometry to determine numbers of alpha4 beta7-postive cells.
A Becton-Dickenson FACSort (B-D instruments) was used for these studies.
Comparisons were made between numbers of alpha 4 beta 7-positive cells in samples taken from antigen-treated animals and numbers of alpha 4 beta 7-positive cells taken from antigen-treated animals administered experimental compounds.

Where two headings read alike, the source gives them in different places.

T1 sequence (P13612 34-1032): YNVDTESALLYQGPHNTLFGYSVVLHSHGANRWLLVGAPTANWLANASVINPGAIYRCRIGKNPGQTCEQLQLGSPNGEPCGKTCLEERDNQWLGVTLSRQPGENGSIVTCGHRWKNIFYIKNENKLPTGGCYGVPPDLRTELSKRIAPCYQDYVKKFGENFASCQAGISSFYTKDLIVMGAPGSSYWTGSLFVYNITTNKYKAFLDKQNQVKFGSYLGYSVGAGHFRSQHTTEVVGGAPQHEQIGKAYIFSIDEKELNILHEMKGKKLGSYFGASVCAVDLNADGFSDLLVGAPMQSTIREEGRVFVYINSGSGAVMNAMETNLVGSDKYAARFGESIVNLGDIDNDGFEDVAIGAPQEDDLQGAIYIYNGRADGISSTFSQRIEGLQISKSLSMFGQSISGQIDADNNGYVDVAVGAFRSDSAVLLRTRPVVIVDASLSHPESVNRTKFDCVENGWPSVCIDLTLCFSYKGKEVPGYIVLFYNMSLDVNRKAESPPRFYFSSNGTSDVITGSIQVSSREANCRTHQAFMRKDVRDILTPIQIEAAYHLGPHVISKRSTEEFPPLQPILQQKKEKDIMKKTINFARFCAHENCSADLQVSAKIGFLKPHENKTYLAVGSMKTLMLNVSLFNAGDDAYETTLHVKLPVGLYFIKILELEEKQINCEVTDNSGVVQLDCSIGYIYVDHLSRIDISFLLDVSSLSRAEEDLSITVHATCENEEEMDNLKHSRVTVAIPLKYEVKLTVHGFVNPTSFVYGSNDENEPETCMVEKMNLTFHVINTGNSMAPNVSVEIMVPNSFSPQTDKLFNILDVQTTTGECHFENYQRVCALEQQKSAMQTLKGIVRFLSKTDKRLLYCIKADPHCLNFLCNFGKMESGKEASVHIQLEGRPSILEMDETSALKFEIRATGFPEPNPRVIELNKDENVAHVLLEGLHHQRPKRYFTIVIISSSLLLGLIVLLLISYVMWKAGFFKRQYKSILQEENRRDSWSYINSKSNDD
T1 sequence (P05556 21-798): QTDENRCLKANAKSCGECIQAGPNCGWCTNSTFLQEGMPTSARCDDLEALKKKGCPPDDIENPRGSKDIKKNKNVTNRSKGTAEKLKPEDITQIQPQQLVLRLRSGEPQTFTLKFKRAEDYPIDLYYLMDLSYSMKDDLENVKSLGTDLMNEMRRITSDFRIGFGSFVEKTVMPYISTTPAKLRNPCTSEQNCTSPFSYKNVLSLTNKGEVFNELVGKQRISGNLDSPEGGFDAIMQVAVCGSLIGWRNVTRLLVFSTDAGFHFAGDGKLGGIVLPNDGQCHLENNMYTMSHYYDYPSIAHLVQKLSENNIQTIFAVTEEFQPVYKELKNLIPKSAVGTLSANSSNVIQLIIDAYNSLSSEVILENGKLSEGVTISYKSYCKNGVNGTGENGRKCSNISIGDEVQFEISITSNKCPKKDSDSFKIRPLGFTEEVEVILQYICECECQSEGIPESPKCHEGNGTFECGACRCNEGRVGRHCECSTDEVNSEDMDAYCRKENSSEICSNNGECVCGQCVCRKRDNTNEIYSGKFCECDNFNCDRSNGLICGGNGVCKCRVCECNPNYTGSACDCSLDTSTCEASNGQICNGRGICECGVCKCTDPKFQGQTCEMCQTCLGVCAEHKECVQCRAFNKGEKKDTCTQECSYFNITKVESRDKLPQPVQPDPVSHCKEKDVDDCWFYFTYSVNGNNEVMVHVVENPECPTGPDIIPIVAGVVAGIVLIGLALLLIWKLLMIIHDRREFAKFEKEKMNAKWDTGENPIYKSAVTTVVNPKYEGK

As to `COc1cnn(CC(N)=O)c(=O)c1-c1ccc(C[C@H](NC(=O)c2c(Cl)cccc2Cl)C(=O)O)cc1` [Cpd 5], the IC50 on α4β1 amounted to 307 nM. For the same compound, in assay [1] (sc, 30 mg/kg sc bid × 2), the inhibition in vivo at 30 mg/kg stood at 53.4%.

Take `COc1cnn(CCN2CCOCC2)c(=O)c1-c1ccc(C[C@H](NC(=O)c2c(Cl)cccc2Cl)C(=O)O)cc1` [Cpd 10]: the half-maximal inhibitory concentration (IC50) at α4β1 was 363 nM. For the same compound, in assay [1] (sc, 30 mg/kg sc bid × 2), the inhibition in vivo at 30 mg/kg amounted to 56.3%.

As to `COc1cnn(CC(=O)O)c(=O)c1-c1ccc(C[C@H](NC(=O)c2c(Cl)cccc2Cl)C(=O)O)cc1` [Cpd 11], on α4β1, the IC50 stood at 842 nM. For the same compound, the inhibition in vivo at 30 mg/kg in assay [1] (sc, 30 mg/kg sc bid × 2) came out at 70.5%.

Consider `COc1cnn(CCO)c(=O)c1-c1ccc(C[C@H](NC(=O)c2c(Cl)cccc2Cl)C(=O)O)cc1` [Cpd 15, (S)-2-(2,6-Dichloro-benzoylamino)-3{4-[2-(2-hydroxy-ethyl)-5-methoxy-3-oxo-2,3-dihydro-pyridazin-4-yl]-phenyl}-propionic acid], for which, at α4β1, the IC50 stood at 125 nM. In addition, in assay [1] (sc, 30 mg/kg sc bid × 2), the inhibition in vivo at 30 mg/kg is 10.4%.

`CNc1cnn(CC(C)=O)c(=O)c1-c1ccc(C[C@H](NC(=O)c2c(Cl)cccc2Cl)C(=O)O)cc1` [Cpd 18]: on α4β1, the 50% inhibitory concentration (IC50) was more than 1000 nM. In addition, the “% Decrease in recruited α4β7 + cells” value in assay [1] (30 mg/kg sc bid × 2) is listed as 52.8%.

Consider `O=C(N[C@@H](Cc1ccc(-c2c(OCc3cccnc3)cnn(CCO)c2=O)cc1)C(=O)O)c1c(Cl)cccc1Cl` [Cpd 30], for which the concentration for half-maximal inhibition (IC50) on α4β1 was determined as 284 nM. In assay [1] (sc, 30 mg/kg sc bid × 2), the inhibition in vivo at 30 mg/kg worked out at 37.4%.

For `O=C(N[C@@H](Cc1ccc(-c2c(OCC3CC3)cnn(CCO)c2=O)cc1)C(=O)O)c1c(Cl)cccc1Cl` [Cpd 35], the IC50 at α4β1 turned out to be 342 nM. The inhibition in vivo at 30 mg/kg in assay [1] (sc, 30 mg/kg sc bid × 2) came to 49.8%.

As to `Cn1ncc(N)c(-c2ccc(C[C@H](NC(=O)c3c(Cl)cccc3Cl)C(=O)O)cc2)c1=O` [Cpd 46], the IC50 on α4β1 was found to be 370 nM. For the same compound, the inhibition in vivo at 30 mg/kg in assay [1] (sc, 30 mg/kg sc bid × 2) came out at 56.6%.

Consider `O=C(N[C@@H](Cc1ccc(-c2c(N3CCOCC3)cnn(CCO)c2=O)cc1)C(=O)O)c1c(Cl)cccc1Cl` [Cpd 61], for which the IC50 at α4β1 is 221 nM. Besides, the inhibition in vivo at 30 mg/kg in assay [1] (sc, 30 mg/kg sc bid × 2) turned out to be 37.4%.

With `COc1cnn(C)c(=O)c1-c1ccc(C[C@H](NC(=O)[C@@H]2C3CCC(CC3)N2C(=O)CCc2ccccc2)C(=O)O)cc1` [Cpd 89, 3-[4-(5-Methoxy-2-methyl-3-oxo-2,3-dihydro-pyridazin-4-yl)-phenyl]-2(S)-{[2-(3-phenyl-propionyl)-2-aza-bicyclo[2.2.2]octane-3(S)-carbonyl]-amino}-propionic acid], on α4β1, the 50% inhibitory concentration (IC50) stood at 39.7 nM.

As for `COc1cnn(CCO)c(=O)c1-c1ccc(C[C@H](NC(=O)OC(C)(C)C)C(=O)O)cc1` [Cpd 120], the inhibition in vivo at 30 mg/kg in assay [1] (po, 30 mg/kg po bid × 2) was found to be 25.4%.

Consider `COC(=O)[C@H](Cc1ccc(-c2c(OC)cnn(C)c2=O)cc1)NC(=O)c1c(Cl)cccc1Cl` [Cpd 151], for which, on α4β1, the half-maximal inhibitory concentration (IC50) was more than 5000 nM.

For the compound `COc1cnn(CCO)c(=O)c1-c1ccc(C[C@H](NC(=O)c2c(Cl)cccc2Cl)C(=O)OCCO)cc1` [Cpd 199], the IC50 at α4β1 was more than 5000 nM. Also, in assay [1] (30 mg/kg po bid × 2), the “% Decrease in recruited α4β7 + cells” value is reported as 16.04%.

Turning to `COc1cnn(C)c(=O)c1-c1ccc(C[C@H](NC(=O)c2c(Cl)cccc2Cl)C(=O)OCC(C)(C)C)cc1` [Cpd 207], the IC50 at α4β1 was more than 5000 nM. In addition, the inhibition in vivo at 30 mg/kg in assay [1] (po, 30 mg/kg po bid × 2) stood at 25.6%.

As for `Cn1ncc(N)c(-c2ccc(C[C@H](NC(=O)c3c(Cl)cccc3Cl)C(=O)OCCO)cc2)c1=O` [Cpd 232], the IC50 at α4β1 is more than 5000 nM. Besides, the inhibition in vivo at 30 mg/kg in assay [1] (po, 30 mg/kg po bid × 2) was 47.8%.
